≈ marks a conversion by molar mass, not a printed value.
Key:
Test in all cases: In vitro antibacterial evaluation: minimum inhibitory concentration (MIC), broth dilution method
Type in all cases: cell-based
Escherichia coli = Escherichia coli (GC 4560); 18 hours at 35° C.
How it was run: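 Broth dilution per NCCLS M7-A2 in Muller-Hinton II […], inoculum 5×10^5 CFU/mL, antibiotic tested over 64-0.06 μg/mL. MIC is taken as the lowest concentration that inhibits growth. Panel includes recent clinical isolates resistant to methicillin, penicillin and/or vancomycin.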

Streptococcus sp. = details: 18 hours at 35° C.
How it was run: (§1)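 Inoculum: 5×10^5 CFU/mL. Range: 64-0.06 μg/mL. Medium: Muller-Hinton II […]; NCCLS M7-A2 broth dilution. Endpoint: lowest concentration inhibiting growth. Strains include methicillin-, penicillin- and/or vancomycin-resistant clinical isolates.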

Staphylococcus sp. = system: Staphylococcus sp.
How it was run: as §1

Enterococcus sp. = details: 18 hours at 35° C.
How it was run: as §1

[1] = broth dilution, inoculum 5×10^5 CFU/mL

MIC Escherichia coli (GC 4560) (Escherichia coli): 4 µg/mL (≈ 2.52 µM)
MIC Streptococcus agalactiae (GC 4564) (Streptococcus sp.; Streptococcus agalactiae (GC 4564)): 4 µg/mL (≈ 2.52 µM)
MIC Streptococcus pneumoniae (ATCC 6301) (Streptococcus sp.; Streptococcus pneumoniae (ATCC 6301)): 4 µg/mL (≈ 2.52 µM)
MIC Streptococcus pneumoniae (GC 1894) (Streptococcus sp.; Streptococcus pneumoniae (GC 1894)): 0.5 µg/mL (≈ 0.315 µM)
MIC Streptococcus pneumoniae (GC 4565) (Streptococcus sp.; Streptococcus pneumoniae (GC 4565)): 4 µg/mL (≈ 2.52 µM)
MIC Streptococcus pyogenes (GC 4563) (Streptococcus sp.; Streptococcus pyogenes (GC 4563)): 2 µg/mL (≈ 1.26 µM)
MIC Streptococcus agalactiae (GC 4564) (Streptococcus sp.; [1]): 4 µg/mL (≈ 2.52 µM)
MIC Streptococcus pneumoniae (ATCC 6301) (Streptococcus sp.; [1]): 4 µg/mL (≈ 2.52 µM)
MIC Streptococcus pneumoniae (GC 1894) (Streptococcus sp.; [1]): 0.5 µg/mL (≈ 0.315 µM)
MIC Streptococcus pneumoniae (GC 4565) (Streptococcus sp.; [1]): 4 µg/mL (≈ 2.52 µM)
MIC Streptococcus pyogenes (GC 4563) (Streptococcus sp.; [1]): 2 µg/mL (≈ 1.26 µM)
MIC Staphylococcus aureus (ATCC 29213) (Staphylococcus sp.; strain ATCC 29213): 16 µg/mL (≈ 10.1 µM)
MIC Staphylococcus aureus (GC 1131) (Staphylococcus sp.; strain GC 1131): 16 µg/mL (≈ 10.1 µM)
MIC Staphylococcus aureus (GC 3051) (Staphylococcus sp.; strain GC 3051): 16 µg/mL (≈ 10.1 µM)
MIC Staphylococcus aureus (GC 3053) (Staphylococcus sp.; strain GC 3053): 16 µg/mL (≈ 10.1 µM)
MIC Staphylococcus aureus (GC 4541) (Staphylococcus sp.; strain GC 4541): 8 µg/mL (≈ 5.05 µM)
MIC Staphylococcus aureus (GC 4542) (Staphylococcus sp.; strain GC 4542): 16 µg/mL (≈ 10.1 µM)
MIC Staphylococcus aureus-SMITH (GC 4543) (Staphylococcus sp.; strain GC 4543): 8 µg/mL (≈ 5.05 µM)
MIC Staphylococcus aureus (GC 4544) (Staphylococcus sp.; strain GC 4544): 16 µg/mL (≈ 10.1 µM)
MIC Staphylococcus aureus (GC 4545) (Staphylococcus sp.; strain GC 4545): 16 µg/mL (≈ 10.1 µM)
MIC Coagulase Negative Staphylococcus (GC 4547) (Staphylococcus sp.; strain GC 4547): 8 µg/mL (≈ 5.05 µM)
MIC Coagulase Negative Staphylococcus (GC 4548) (Staphylococcus sp.; strain GC 4548): 8 µg/mL (≈ 5.05 µM)
MIC Coagulase Negative Staphylococcus (GC 4549) (Staphylococcus sp.; strain GC 4549): 16 µg/mL (≈ 10.1 µM)
MIC Coagulase Negative Staphylococcus (GC 4551) (Staphylococcus sp.; strain GC 4551): 8 µg/mL (≈ 5.05 µM)
MIC Coagulase Negative Staphylococcus (GC 6257) (Staphylococcus sp.; strain GC 6257): 2 µg/mL (≈ 1.26 µM)
MIC Enterococcus avium (GC 4558) (Enterococcus sp.; Enterococcus avium (GC 4558)): 8 µg/mL (≈ 5.05 µM)
MIC Enterococcus faecalis (ATCC 29212) (Enterococcus sp.; Enterococcus faecalis (ATCC 29212)): 32 µg/mL (≈ 20.2 µM)
MIC Enterococcus faecalis (GC 2242) (Enterococcus sp.; Enterococcus faecalis (GC 2242)): 16 µg/mL (≈ 10.1 µM)
MIC Enterococcus faecalis (GC 2691) (Enterococcus sp.; Enterococcus faecalis (GC 2691)): 32 µg/mL (≈ 20.2 µM)
MIC Enterococcus faecalis (GC 3059) (Enterococcus sp.; Enterococcus faecalis (GC 3059)): 32 µg/mL (≈ 20.2 µM)
MIC Enterococcus faecalis (GC 4552) (Enterococcus sp.; Enterococcus faecalis (GC 4552)): 32 µg/mL (≈ 20.2 µM)
MIC Enterococcus faecalis (GC 4553) (Enterococcus sp.; Enterococcus faecalis (GC 4553)): 16 µg/mL (≈ 10.1 µM)
MIC Enterococcus faecalis (GC 4554) (Enterococcus sp.; Enterococcus faecalis (GC 4554)): 32 µg/mL (≈ 20.2 µM)
MIC Enterococcus faecalis (GC 6189) (Enterococcus sp.; Enterococcus faecalis (GC 6189)): 32 µg/mL (≈ 20.2 µM)
MIC Enterococcus faecium (GC 2243) (Enterococcus sp.; Enterococcus faecium (GC 2243)): 16 µg/mL (≈ 10.1 µM)
MIC Enterococcus faecium (GC 4556) (Enterococcus sp.; Enterococcus faecium (GC 4556)): 32 µg/mL (≈ 20.2 µM)
MIC Enterococcus faecium (GC 4557) (Enterococcus sp.; Enterococcus faecium (GC 4557)): 2 µg/mL (≈ 1.26 µM)
MIC Enterococcus avium (GC 4558) (Enterococcus sp.; [1]): 8 µg/mL (≈ 5.05 µM)
MIC Enterococcus faecalis (ATCC 29212) (Enterococcus sp.; [1]): 32 µg/mL (≈ 20.2 µM)
MIC Enterococcus faecalis (GC 2242) (Enterococcus sp.; [1]): 16 µg/mL (≈ 10.1 µM)
MIC Enterococcus faecalis (GC 2691) (Enterococcus sp.; [1]): 32 µg/mL (≈ 20.2 µM)
MIC Enterococcus faecalis (GC 3059) (Enterococcus sp.; [1]): 32 µg/mL (≈ 20.2 µM)
MIC Enterococcus faecalis (GC 4552) (Enterococcus sp.; [1]): 32 µg/mL (≈ 20.2 µM)
MIC Enterococcus faecalis (GC 4553) (Enterococcus sp.; [1]): 16 µg/mL (≈ 10.1 µM)
MIC Enterococcus faecalis (GC 4554) (Enterococcus sp.; [1]): 32 µg/mL (≈ 20.2 µM)
MIC Enterococcus faecalis (GC 6189) (Enterococcus sp.; [1]): 32 µg/mL (≈ 20.2 µM)
MIC Enterococcus faecium (GC 2243) (Enterococcus sp.; [1]): 16 µg/mL (≈ 10.1 µM)
MIC Enterococcus faecium (GC 4556) (Enterococcus sp.; [1]): 32 µg/mL (≈ 20.2 µM)
MIC Enterococcus faecium (GC 4557) (Enterococcus sp.; [1]): 2 µg/mL (≈ 1.26 µM)
Compound: CC(c1ccccc1)C1NC(=O)CNC(=O)C(CO)NC(=O)C(C(O)C2CN(Cc3ccc(C(F)(F)F)cc3)C(=N)N2C2OC(CO)C(O)C(O)C2O)NC(=O)C(C(O)C2CNC(=N)N2)NC(=O)C(Cc2ccc(OC3OC(CO)C(OC4OC5COC6(OC5C(O)C4O)C4CC5CC(C4)CC6C5)C(O)C3O)cc2)NC1=O (centres unmarked) [Example 226]
MIC Staphylococcus haemolyticus (GC 4546) (Staphylococcus sp.; strain GC 4546): 8 µg/mL (≈ 5.05 µM)

— US8247211B2, “Glycopeptide antibiotics” (American Cyanamid Company, priority 2001, dated 2012)
